# Measured values published in US11420969B2 (Exonate Limited, priority 2017, dated 2022).
# What was measured:
# CYP2D6 = molecular target: T1, CYP2D6 (Homo sapiens, UniProt P10635); test: biochemical; assay type: in vitro ADME
# T1 construct: from tissue; host or cells: human liver microsomes
# Procedure, shortened: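 Read-out is LC-MS/MS of supernatant, giving % inhibition and IC50 relative to a no-inhibitor ACN/DMSO control. Compound and substrate pool were pre-incubated 20 min at 37° C with human liver microsomes (working stock 0.253 mg/mL) before a 10 min NADPH-driven reaction, quenched with cold ACN.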
# CYP3A4 = molecular target: T2, CYP3A4 (Homo sapiens, UniProt P08684); test: CYP inhibition assay, human liver microsomes, substrate midazolam; assay type: in vitro ADME; conditions: human liver microsomes, 10 min incubation, LC-MS/MS; read-out: CYP Inhibition Activity (IC50/nM) CYP3A4
# T2 construct: from tissue; host or cells: human liver microsomes
# T2 sequence (P08684 whole entry): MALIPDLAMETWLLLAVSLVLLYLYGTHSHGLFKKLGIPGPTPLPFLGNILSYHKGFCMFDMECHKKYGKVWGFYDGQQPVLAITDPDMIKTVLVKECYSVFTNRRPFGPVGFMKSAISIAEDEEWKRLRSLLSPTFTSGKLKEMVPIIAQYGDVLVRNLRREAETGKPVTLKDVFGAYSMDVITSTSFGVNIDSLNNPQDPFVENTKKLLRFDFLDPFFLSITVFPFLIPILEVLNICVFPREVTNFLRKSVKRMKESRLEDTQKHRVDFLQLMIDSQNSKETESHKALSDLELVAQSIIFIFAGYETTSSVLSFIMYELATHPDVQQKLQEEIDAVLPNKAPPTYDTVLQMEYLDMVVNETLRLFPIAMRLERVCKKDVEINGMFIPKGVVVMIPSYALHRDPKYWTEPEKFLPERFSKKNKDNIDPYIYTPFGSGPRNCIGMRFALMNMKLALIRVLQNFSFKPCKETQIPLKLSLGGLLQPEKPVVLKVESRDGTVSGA
# Procedure, shortened: (§1)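 Reactions run 10 min at 37 °C with NADPH after a 20 min pre-incubation of compound plus substrate pool; quenched with cold ACN. Read by LC-MS/MS against solvent-only control, giving % inhibition and IC50.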
# CYP1A2 = molecular target: T3, CYP1A2 (Homo sapiens, UniProt P05177); test: CYP inhibition assay, human liver microsomes, substrate tacrine; assay type: in vitro ADME; conditions: human liver microsomes, 10 min incubation, LC-MS/MS; read-out: CYP Inhibition Activity (IC50/nM) CYP1A2
# T3 construct: from tissue; host or cells: human liver microsomes
# T3 sequence (P05177 1-516): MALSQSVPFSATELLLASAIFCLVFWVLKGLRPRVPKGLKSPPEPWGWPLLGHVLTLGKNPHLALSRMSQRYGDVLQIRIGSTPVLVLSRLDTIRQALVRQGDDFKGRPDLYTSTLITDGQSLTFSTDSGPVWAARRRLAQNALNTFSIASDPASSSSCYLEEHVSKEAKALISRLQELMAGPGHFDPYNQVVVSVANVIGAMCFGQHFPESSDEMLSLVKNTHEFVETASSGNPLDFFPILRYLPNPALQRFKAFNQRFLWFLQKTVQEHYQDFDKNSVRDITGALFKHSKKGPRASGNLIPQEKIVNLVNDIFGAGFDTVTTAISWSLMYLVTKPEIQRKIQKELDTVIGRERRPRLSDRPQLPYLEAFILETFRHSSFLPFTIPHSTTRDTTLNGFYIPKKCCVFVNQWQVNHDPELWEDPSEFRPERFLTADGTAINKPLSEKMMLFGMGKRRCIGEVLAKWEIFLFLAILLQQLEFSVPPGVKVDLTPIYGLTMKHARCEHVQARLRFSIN
# Procedure, shortened: as §1
# CYP2C19 = molecular target: T4, CYP2C19 (Homo sapiens, UniProt P33261); test: CYP inhibition assay, human liver microsomes, substrate S-mephenytoin; assay type: in vitro ADME; conditions: human liver microsomes, 10 min incubation, LC-MS/MS; read-out: CYP Inhibition Activity (IC50/nM) CYP2C19
# T4 construct: from tissue; host or cells: human liver microsomes
# T4 sequence (P33261 whole entry): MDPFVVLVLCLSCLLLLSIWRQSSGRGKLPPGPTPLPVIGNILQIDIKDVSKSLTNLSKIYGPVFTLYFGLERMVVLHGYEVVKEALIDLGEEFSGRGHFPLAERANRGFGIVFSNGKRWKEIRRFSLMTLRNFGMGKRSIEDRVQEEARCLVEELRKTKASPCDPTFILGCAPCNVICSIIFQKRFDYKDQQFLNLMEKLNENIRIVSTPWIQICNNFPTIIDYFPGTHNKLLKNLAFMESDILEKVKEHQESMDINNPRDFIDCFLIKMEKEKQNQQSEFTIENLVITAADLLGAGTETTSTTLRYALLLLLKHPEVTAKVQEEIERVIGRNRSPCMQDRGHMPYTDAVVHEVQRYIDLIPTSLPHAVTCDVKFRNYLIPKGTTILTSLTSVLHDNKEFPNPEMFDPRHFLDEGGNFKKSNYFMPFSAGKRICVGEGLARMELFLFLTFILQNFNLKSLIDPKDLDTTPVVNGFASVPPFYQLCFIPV
# Procedure, shortened: as §1
# CYP2C9 = molecular target: T5, CYP2C9 (Homo sapiens, UniProt P11712); test: CYP inhibition assay, human liver microsomes, substrate diclofenac; assay type: in vitro ADME; conditions: human liver microsomes, 10 min incubation, LC-MS/MS; read-out: CYP Inhibition Activity (IC50/nM) CYP2C9
# T5 construct: from tissue; host or cells: human liver microsomes
# T5 sequence (P11712 whole entry): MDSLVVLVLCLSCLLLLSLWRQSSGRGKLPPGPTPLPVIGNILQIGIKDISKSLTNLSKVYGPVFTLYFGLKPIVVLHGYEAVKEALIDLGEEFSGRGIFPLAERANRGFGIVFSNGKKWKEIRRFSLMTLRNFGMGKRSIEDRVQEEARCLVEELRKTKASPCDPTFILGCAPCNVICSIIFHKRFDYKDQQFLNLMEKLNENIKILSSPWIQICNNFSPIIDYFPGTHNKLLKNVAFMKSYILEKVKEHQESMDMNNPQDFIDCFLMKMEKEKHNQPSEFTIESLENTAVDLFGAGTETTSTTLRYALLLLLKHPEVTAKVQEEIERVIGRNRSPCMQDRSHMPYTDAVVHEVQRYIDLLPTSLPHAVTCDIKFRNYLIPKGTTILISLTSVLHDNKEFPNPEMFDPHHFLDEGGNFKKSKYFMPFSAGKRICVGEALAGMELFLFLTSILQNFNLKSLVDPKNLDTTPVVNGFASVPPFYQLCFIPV
# Procedure, shortened: as §1
# SRPK1 = SRPK1 (Homo sapiens, UniProt Q96SB4); test: In vitro SRPK1 assay (Kinase-Glo); assay type: biochemical
# SRPK1, sequence (Q96SB4 whole entry, species assumed): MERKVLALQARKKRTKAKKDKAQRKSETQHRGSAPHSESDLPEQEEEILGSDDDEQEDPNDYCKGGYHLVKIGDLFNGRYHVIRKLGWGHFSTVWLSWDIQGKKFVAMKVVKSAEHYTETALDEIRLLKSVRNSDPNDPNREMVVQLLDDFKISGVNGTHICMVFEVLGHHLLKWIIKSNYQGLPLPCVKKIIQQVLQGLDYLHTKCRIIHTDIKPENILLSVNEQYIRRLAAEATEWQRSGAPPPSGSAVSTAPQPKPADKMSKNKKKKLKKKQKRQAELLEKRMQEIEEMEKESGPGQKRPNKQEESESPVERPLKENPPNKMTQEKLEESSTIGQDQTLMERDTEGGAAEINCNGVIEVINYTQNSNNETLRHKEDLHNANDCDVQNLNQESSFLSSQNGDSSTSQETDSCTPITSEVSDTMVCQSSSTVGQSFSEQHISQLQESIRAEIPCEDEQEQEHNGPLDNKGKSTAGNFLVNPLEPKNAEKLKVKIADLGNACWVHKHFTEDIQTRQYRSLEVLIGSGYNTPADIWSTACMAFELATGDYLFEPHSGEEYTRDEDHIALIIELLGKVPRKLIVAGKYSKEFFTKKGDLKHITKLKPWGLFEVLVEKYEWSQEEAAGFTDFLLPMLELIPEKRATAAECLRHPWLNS
# T1 sequence (P10635 whole entry): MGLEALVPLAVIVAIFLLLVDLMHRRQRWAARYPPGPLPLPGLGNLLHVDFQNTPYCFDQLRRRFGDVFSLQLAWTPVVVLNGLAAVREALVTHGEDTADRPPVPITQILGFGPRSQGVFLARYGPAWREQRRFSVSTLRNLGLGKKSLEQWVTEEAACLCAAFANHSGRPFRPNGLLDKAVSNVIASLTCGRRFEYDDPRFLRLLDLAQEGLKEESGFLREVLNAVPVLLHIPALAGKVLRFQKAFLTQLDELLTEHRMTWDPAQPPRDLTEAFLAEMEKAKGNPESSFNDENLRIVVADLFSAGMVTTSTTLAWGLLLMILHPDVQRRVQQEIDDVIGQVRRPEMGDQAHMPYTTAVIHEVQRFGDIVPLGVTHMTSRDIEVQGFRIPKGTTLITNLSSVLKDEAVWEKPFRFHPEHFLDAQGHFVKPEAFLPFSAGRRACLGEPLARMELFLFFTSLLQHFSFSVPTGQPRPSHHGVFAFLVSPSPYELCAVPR
SMILES,IC50 (CYP2D6) [µM],IC50 (CYP3A4) [nM],IC50 (CYP1A2) [nM],IC50 (CYP2C19) [nM],IC50 (CYP2C9) [nM],IC50 (SRPK1) [nM]
"CC1(C(N)=O)CCN(c2ccc(C(F)(F)F)cc2NC(=O)c2ccc(C3CCOCC3)o2)CC1 [Example 75, 4-methyl-1-(2-(5-(tetrahydro-2H-pyran-4-yl)furan-2-carboxamido)-4-(trifluoromethyl)-phenyl)piperidine-4-carboxamide]",11.8,10300,> 30000,10800,4400,2.8
"Cc1ccc(N2CCC(O)(CC3CC3)CC2)c(NC(=O)c2ccc(C3CCOCC3)o2)c1 [Example 70, N-(2-(4-(cyclopropylmethyl)-4-hydroxypiperidin-1-yl)-5-methylphenyl)-5-(tetrahydro-2H-pyran-4-yl)furan-2-carboxamide]",4.7,4400,> 30000,2200,1800,11
"CC1(N)CCN(c2ccc(C(F)(F)F)cc2NC(=O)c2ccc(C3CCOCC3)o2)CC1 [Example 101, N-(2-(4-amino-4-methylpiperidin-1-yl)-5-(trifluoromethyl)-phenyl)-5-(tetrahydro-2H-pyran-4-yl)furan-2-carboxamide]",4.8,> 30000,> 30000,> 30000,> 30000,15.1
"O=C(Nc1cc(C(F)(F)F)ccc1N1CCCC(O)CC1)c1ccc(C2CCOCC2)o1 (racemic) [Example 47, N-(2-(4-hydroxyazepan-1-yl)-5-(trifluoromethyl)-phenyl)-5-(tetrahydro-2H-pyran-4-yl)furan-2-carboxamide]",> 30,> 30000,> 30000,> 30000,> 30000,10.4
"CC1(C)CCN(c2ccc(C3CC3)cc2NC(=O)c2ccc(C3CCOCC3)o2)CC1 [Example 64, N-(5-cyclopropyl-2-(4,4-dimethylpiperidin-1-yl)phenyl)-5-(tetrahydro-2H-pyran-4-yl)furan-2-carboxamide]",> 30,> 30000,> 30000,> 30000,15800,5.6
"C[C@@]1(O)CCN(c2ccc(C(F)(F)F)cc2NC(=O)c2ccc(-c3ccncc3)o2)C1 [Example 52, (R)-N-(2-(3-hydroxy-3-methylpyrrolidin-1-yl)-5-(trifluoromethyl)phenyl)-5-(pyridin-4-yl)furan-2-carboxamide]",0.15,1190,4360,540,200,216
"CC1(O)CCN(c2ccc(C(F)F)cc2NC(=O)c2ccc(C3CCOCC3)o2)CC1 [Example 14, N-(5-(difluoromethyl)-2-(4-hydroxy-4-methyl-piperidin-1-yl)phenyl)-5-(tetrahydro-2H-pyran-4-yl)furan-2-carboxamide]",25.9,7700,19000,7700,3800,7.3
"CN1CCC2(CCN(c3ccc(C(F)(F)F)cc3NC(=O)c3ccc(C4CCOCC4)o3)CC2)C1 [Example 99, N-(2-(2-methyl-2,8-diazaspiro[4.5]decan-8-yl)-5-(trifluoromethyl)phenyl)-5-(tetrahydro-2H-pyran-4-yl)furan-2-carboxamide]",3,18000,> 30000,> 30000,> 30000,4.8
"CC1(O)CCCN(c2ccc(C(F)(F)F)cc2NC(=O)c2ccc(C3CCOCC3)o2)CC1 (racemic) [Example 40, N-(2-(4-hydroxy-4-methylazepan-1-yl)-5-(trifluoromethyl)phenyl)-5-(tetrahydro-2H-pyran-4-yl)furan-2-carboxamide]",26.9,10900,> 30000,10400,8450,1.6
"CC1(CO)CCN(c2ccc(C(F)(F)F)cc2NC(=O)c2ccc(-c3ccncc3)o2)CC1 [Example 24, N-(2-(4-(hydroxymethyl)-4-methylpiperidin-1-yl)-5-(trifluoromethyl)phenyl)-5-(pyridin-4-yl)furan-2-carboxamide]",> 30,> 30000,> 30000,> 30000,> 30000,2
"O=C(Nc1cc(C(F)(F)F)ccc1N1CCC(O)(CC2CC2)CC1)c1ccc(C2CCOCC2)o1 [Example 23, N-(2-(4-(cyclopropylmethyl)-4-hydroxypiperidin-1-yl)-5-(trifluoromethyl)phenyl)-5-(tetrahydro-2H-pyran-4-yl)furan-2-carboxamide]",0.03,2650,2510,260,220,64
"COc1ccc(N2CCC(C)(O)CC2)c(NC(=O)c2ccc(-c3ccncc3)o2)c1 [Example 9, N-(2-(4-hydroxy-4-methylpiperidin-1-yl)-5-methoxyphenyl)-5-(pyridin-4-yl)furan-2-carboxamide]",5.1,360,4990,890,350,4.4
O=C(Nc1cc(C(F)(F)F)ccc1N1CCC(O)(Cc2ccccc2)CC1)c1ccc(C2CCOCC2)o1 [Example 19],> 30,18800,15300,12300,12700,39
"O=C(Nc1cc(C(F)(F)F)ccc1N1CCC(O)CC1)c1ccc(-c2ccncc2)o1 [Example 32, N-(2-(4-hydroxypiperidin-1-yl)-5-(trifluoromethyl)-phenyl)-5-(pyridin-4-yl)furan-2-carboxamide]",2.1,4200,2900,1100,1500,0.8
"CC1(C(=O)N2CCOCC2)CCN(c2ccc(C(F)(F)F)cc2NC(=O)c2ccc(C3CCOCC3)o2)CC1 [Example 90, N-(2-(4-methyl-4-(morpholine-4-carbonyl)-piperidin-1-yl)-5-(trifluoromethyl)phenyl)-5-(tetrahydro-2H-pyran-4-yl)furan-2-carboxamide]",11.6,2800,> 30000,10300,1000,5.5
"CC1(O)CCN(c2ccc(C3CC3)cc2NC(=O)c2ccc(C3CCOCC3)o2)CC1 [Example 17, N-(5-cyclopropyl-2-(4-hydroxy-4-methylpiperidin-1-yl)phenyl)-5-(tetrahydro-2H-pyran-4-yl)furan-2-carboxamide]",> 30,15200,> 30000,9570,3770,2
"CC1(CN2CCCCC2)CCN(c2ccc(C(F)(F)F)cc2NC(=O)c2ccc(C3CCOCC3)o2)CC1 [Example 96, N-(2-(4-methyl-4-(piperidin-1-ylmethyl)piperidin-1-yl)-5-(trifluoromethyl)phenyl)-5-(tetrahydro-2H-pyran-4-yl)furan-2-carboxamide]",0.2,7700,> 30000,> 30000,17800,49
"CN(C)C(=O)C1(C)CCN(c2ccc(C(F)(F)F)cc2NC(=O)c2ccc(-c3ccncc3)o2)CC1 [Example 74, N,N,4-trimethyl-1-(2-(5-(pyridin-4-yl)furan-2-carboxamido)-4-(trifluoromethyl)phenyl)-piperidine-4-carboxamide]",1.55,720,> 30000,2890,1130,2.9
"Cc1ccc(N2CCC(C)(C(=O)N(C)C)CC2)c(NC(=O)c2ccc(C3CCOCC3)o2)c1 [Example 87, N,N,4-trimethyl-1-(4-methyl-2-(5-(tetrahydro-2H-pyran-4-yl)furan-2-carboxamido)phenyl)piperidine-4-carboxamide]",> 30,5900,> 30000,14300,800,27
